Converted amounts (≈) assume the structure as drawn.
Columns and labels:
Klebsiella pneumoniae [1] = experiment: Antibacterial activity against wild-type Klebsiella pneumoniae ATCC 13883 assessed as inhibition of bacterial growth incubated for 18 hrs; format: functional; settings: read-out: MIC100
[2] = Cytotoxicity against human HepG2 cells incubated for 40 hrs by celltiter-glo luminescent cell viability assay; format: toxicity, cell-based
[3] = Binding affinity to gram negative bacterial lipid II assessed as dissociation constant by ITC analysis; design: species or system Bacteria
[4] = Hemolytic activity in human red blood cells at 400 ug/ml incubated for 45 mins by spectrophotometric analysis relative to control; format: toxicity, cell-based, Erythrocyte; settings: red blood cells (erythrocytes), at 400 µg/mL, read-out: Activity
Escherichia coli [5] = experiment: Antibacterial activity against wild-type Escherichia coli ATCC 25922 assessed as inhibition of bacterial growth incubated for 18 hrs; format: functional; settings: read-out: MIC100
Pseudomonas aeruginosa = experiment: Antibacterial activity against wild-type Pseudomonas aeruginosa PAO1 assessed as inhibition of bacterial growth incubated for 24 hrs; format: functional; settings: read-out: MIC100
Acinetobacter baumannii = experiment: Antibacterial activity against wild-type Acinetobacter baumannii ATCC 19606 assessed as inhibition of bacterial growth incubated for 20 hrs; format: functional; settings: read-out: MIC100
Escherichia coli [6] = experiment: Antibacterial activity against Escherichia coli ATCC 25922 harboring tolC knock-out assessed as inhibition of bacterial growth incubated for 18 hrs; format: functional; settings: read-out: MIC100
[7] = Hydrophobicity of compound assessed as %MeCN at peak elution by RP-HPLC analysis; format: physicochemical
Escherichia coli [8] = experiment: Antibacterial activity against wild-type Escherichia coli ATCC 25922 assessed as inhibition of bacterial growth incubated for 18 hrs in presence of 50% heat inactivated human serum; format: functional; settings: read-out: MIC100
Staphylococcus aureus = experiment: Antibacterial activity against […] assessed as inhibition of bacterial growth incubated for 18 hrs; format: functional; settings: ATCC 29213, read-out: MIC100
Escherichia coli [9] = experiment: Antibacterial activity against wild-type Escherichia coli ATCC 25922 assessed as inhibition of bacterial growth by measuring fold increase in MIC incubated for 18 hrs in presence of 50% heat inactivated human serum relative to control; format: functional
Escherichia coli [10] = experiment: Antibacterial activity against Escherichia coli ATCC 25922 harboring hldE knock-out assessed as inhibition of bacterial growth incubated for 18 hrs; format: functional; settings: read-out: MIC100
Klebsiella pneumoniae [11] = experiment: Antibacterial activity against wild-type Klebsiella pneumoniae ATCC 13883 assessed as inhibition of bacterial growth incubated for 18 hrs in presence of 50% heat inactivated human serum; format: functional; settings: read-out: MIC100

Kd [3] [nM] | Compound | MIC (Klebsiella pneumoniae [1]) [µg/mL] | IC50 at 40 h [2] [µg/mL] | hemolysis at 0.75 h, 400 ug/ml [4] [%] | MIC (Escherichia coli [5]) [µg/mL] | MIC (Pseudomonas aeruginosa) [µg/mL] | MIC (Acinetobacter baumannii) [µg/mL] | MIC (Escherichia coli [6]) [µg/mL] | MeCN percentage at peak elution [7] [%] | MIC (Escherichia coli [8]) [µg/mL] | MIC (Staphylococcus aureus) [µg/mL] | fold change (FC) (Escherichia coli [9]) | MIC (Escherichia coli [10]) [µg/mL] | MIC (Klebsiella pneumoniae [11]) [µg/mL]
230 | CC[C@H](C)[C@@H](NC(=O)[C@@H](NC(=O)[C@H](CCC(=O)O)NC(=O)[C@H](Cc1ccccc1)NC(=O)[C@@H](CCN)NC(=O)[C@H](CCN)NC(=O)[C@H](CO)NC(=O)[C@@H](Cc1c[nH]c2ccccc12)NC(=O)[C@@H](CO)NC(=O)CNC(=O)[C@@H](CCN)NC(=O)[C@H](N)C(C)C)C(C)C)C(=O)O | > 64 | > 170 | 1 | > 64 | – | – | – | – | – | – | – | – | –
– | CC[C@H](C)[C@@H](NC(=O)[C@@H](NC(=O)[C@H](CCC(=O)O)NC(=O)[C@H](Cc1ccccc1)NC(=O)[C@@H](CCN)NC(=O)[C@H](CCN)NC(=O)[C@H](CO)NC(=O)[C@@H](Cc1c[nH]c2ccccc12)NC(=O)[C@@H](CO)NC(=O)CNC(=O)[C@@H](CCN)NC(=O)[C@H](NC(=O)[C@@H](N)C(C)C)C(C)C)C(C)C)C(=O)N[C@@H](C)C(=O)O | 2 (≈ 1.34 µM) | 87 (≈ 58.2 µM) | 14.6 | 2 (≈ 1.34 µM) | 64 (≈ 42.8 µM) | 64 (≈ 42.8 µM) | 1 (≈ 0.669 µM) | 41.5 | 1 | > 64 | 2 | 32 (≈ 21.4 µM) | 0.5
1220 | CC[C@H](C)[C@@H](NC(=O)[C@@H](NC(=O)[C@H](C)NC(=O)[C@H](Cc1ccccc1)NC(=O)[C@@H](CCN)NC(=O)[C@H](CCN)NC(=O)[C@H](CO)NC(=O)[C@@H](Cc1c[nH]c2ccccc12)NC(=O)[C@@H](CO)NC(=O)CNC(=O)[C@@H](CCN)NC(=O)[C@H](N)C(C)C)C(C)C)C(=O)N[C@@H](C)C(=O)O | > 64 | > 170 | 0 | > 64 | – | – | – | – | – | – | – | – | –
– | CC[C@H](C)[C@@H](NC(=O)[C@H](CC1CCCCC1)NC(=O)[C@H](CCC(=O)O)NC(=O)[C@H](Cc1ccccc1)NC(=O)[C@@H](CCN)NC(=O)[C@H](CCN)NC(=O)[C@H](CO)NC(=O)[C@@H](Cc1c[nH]c2ccccc12)NC(=O)[C@@H](CO)NC(=O)CNC(=O)[C@@H](CCN)NC(=O)[C@H](N)C(C)C)C(=O)N[C@@H](C)C(=O)O | 8 (≈ 5.52 µM) | 46 (≈ 31.8 µM) | 59.1 | 8 (≈ 5.52 µM) | > 64 | 64 (≈ 44.2 µM) | < 0.125 | 43.9 | 16 | > 64 | – | 2 (≈ 1.38 µM) | 4
1400 | CC[C@H](C)[C@@H](NC(=O)[C@@H](NC(=O)[C@H](CCC(N)=O)NC(=O)[C@H](Cc1ccccc1)NC(=O)[C@@H](CCN)NC(=O)[C@H](CCN)NC(=O)[C@H](CO)NC(=O)[C@@H](Cc1c[nH]c2ccccc12)NC(=O)[C@@H](CO)NC(=O)CNC(=O)[C@@H](CCN)NC(=O)[C@H](N)C(C)C)C(C)C)C(=O)N[C@@H](C)C(=O)O | > 64 | 41 (≈ 29.4 µM) | 2.1 | ≥ 32 | – | – | – | – | – | – | – | – | –
800 | CC[C@H](C)[C@@H](NC(=O)[C@@H](NC(=O)[C@H](CCC(=O)O)NC(=O)[C@H](Cc1ccccc1)NC(=O)[C@@H](CCN)NC(=O)[C@H](CCN)NC(=O)[C@H](CCN)NC(=O)[C@@H](Cc1c[nH]c2ccccc12)NC(=O)[C@@H](CO)NC(=O)CNC(=O)[C@@H](CCN)NC(=O)[C@H](N)C(C)C)C(C)C)C(=O)N[C@@H](C)C(=O)O | > 64 | > 170 | 1.1 | > 64 | – | – | – | – | – | – | – | – | –
– | CC[C@@H](C)[C@@H](NC(=O)[C@@H](NC(=O)[C@H](CCC(=O)O)NC(=O)[C@H](Cc1ccccc1)NC(=O)[C@@H](CCN)NC(=O)[C@H](CCN)NC(=O)[C@H](CO)NC(=O)[C@@H](Cc1c[nH]c2ccccc12)NC(=O)[C@@H](CO)NC(=O)CNC(=O)[C@@H](CCN)NC(=O)[C@H](N)C(C)C)C(C)C)C(=O)N[C@@H](C)C(=O)O | 64 (≈ 45.9 µM) | 91 (≈ 65.3 µM) | 5.5 | 64 (≈ 45.9 µM) | > 64 | 64 (≈ 45.9 µM) | 4 (≈ 2.87 µM) | 39.5 | 8 | > 64 | – | 8 (≈ 5.74 µM) | 8
– | CC(C)[C@H](NC(=O)[C@H](CCC(=O)O)NC(=O)[C@H](Cc1ccccc1)NC(=O)[C@@H](CCN)NC(=O)[C@H](CCN)NC(=O)[C@H](CO)NC(=O)[C@@H](Cc1c[nH]c2ccccc12)NC(=O)[C@@H](CO)NC(=O)CNC(=O)[C@@H](CCN)NC(=O)[C@H](NC(=O)[C@H](C)N)C(C)C)C(=O)N[C@H](C)C(=O)N[C@@H](C)C(=O)O | 32 (≈ 22.5 µM) | 47 (≈ 33 µM) | 5 | 64 (≈ 45 µM) | 64 (≈ 45 µM) | > 64 | 32 (≈ 22.5 µM) | 37.7 | 32 | > 64 | – | 8 (≈ 5.62 µM) | 16
770 | CC[C@H](C)[C@@H](NC(=O)[C@@H](NC(=O)[C@H](CCC(=O)O)NC(=O)[C@H](Cc1ccccc1)NC(=O)[C@@H](CCN)NC(=O)[C@H](CCN)NC(=O)[C@H](CO)NC(=O)[C@@H](Cc1c[nH]c2ccccc12)NC(=O)[C@@H](CO)NC(=O)CNC(=O)[C@@H](CCN)NC(=O)[C@H](NC(=O)[C@H](C)N)C(C)C)C(C)C)C(=O)N[C@@H](C)C(N)=O | 32 (≈ 21.8 µM) | > 170 | 1.5 | 8 (≈ 5.46 µM) | – | – | – | – | – | – | – | – | –
330 | CC(C)[C@H](NC(=O)[C@H](CCC(=O)O)NC(=O)[C@H](Cc1ccccc1)NC(=O)[C@@H](CCN)NC(=O)[C@H](CCN)NC(=O)[C@H](CO)NC(=O)[C@@H](Cc1c[nH]c2ccccc12)NC(=O)[C@@H](CO)NC(=O)CNC(=O)[C@@H](CCN)NC(=O)[C@H](N)C(C)C)C(=O)N[C@@H](C(=O)N[C@@H](C)C(N)=O)C(C)(C)C | 2 (≈ 1.44 µM) | 127 (≈ 91.1 µM) | 1.6 | 16 (≈ 11.5 µM) | – | – | – | – | – | – | – | – | –
1170 | CC[C@H](C)[C@@H](NC(=O)[C@@H](NC(=O)[C@H](CCC(=O)O)NC(=O)[C@H](Cc1ccccc1)NC(=O)[C@@H](CN)NC(=O)[C@H](CCN)NC(=O)[C@H](CO)NC(=O)[C@@H](Cc1c[nH]c2ccccc12)NC(=O)[C@@H](CO)NC(=O)CNC(=O)[C@@H](CCN)NC(=O)[C@H](N)C(C)C)C(C)C)C(=O)N[C@@H](C)C(=O)O | > 64 | > 170 | 1.6 | > 64 | – | – | – | – | – | – | – | – | –
– | CC[C@H](C)[C@@H](NC(=O)[C@@H](NC(=O)[C@H](CCC(=O)O)NC(=O)[C@H](Cc1ccccc1)NC(=O)[C@@H](C)NC(=O)[C@H](CCN)NC(=O)[C@H](CO)NC(=O)[C@@H](Cc1c[nH]c2ccccc12)NC(=O)[C@@H](CO)NC(=O)CNC(=O)[C@@H](CCN)NC(=O)[C@H](NC(=O)[C@H](C)N)C(C)C)C(C)C)C(=O)N[C@@H](C)C(=O)O | 16 (≈ 11.1 µM) | 35 (≈ 24.4 µM) | 4.5 | 16 (≈ 11.1 µM) | > 64 | 64 (≈ 44.5 µM) | 8 (≈ 5.57 µM) | 45.9 | 8 | > 64 | – | 8 (≈ 5.57 µM) | 16
– | CC[C@H](C)[C@@H](NC(=O)[C@@H](NC(=O)[C@H](C)NC(=O)[C@H](Cc1ccccc1)NC(=O)[C@@H](CCN)NC(=O)[C@H](CCN)NC(=O)[C@H](CO)NC(=O)[C@@H](Cc1c[nH]c2ccccc12)NC(=O)[C@@H](CO)NC(=O)CNC(=O)[C@@H](CCN)NC(=O)[C@H](NC(=O)[C@H](C)N)C(C)C)C(C)C)C(=O)N[C@@H](C)C(=O)O | 16 (≈ 11.4 µM) | 67 (≈ 47.6 µM) | 0.3 | 8 (≈ 5.68 µM) | 64 (≈ 45.5 µM) | > 64 | 8 (≈ 5.68 µM) | 40.1 | 4 | > 64 | – | 2 (≈ 1.42 µM) | 32

Compound | Kd [3] [nM] | MIC (Klebsiella pneumoniae [1]) [µg/mL] | IC50 at 40 h [2] [µg/mL] | hemolysis at 0.75 h, 400 ug/ml [4] [%] | MIC (Escherichia coli [5]) [µg/mL] | MIC (Pseudomonas aeruginosa) [µg/mL] | MIC (Acinetobacter baumannii) [µg/mL] | MIC (Escherichia coli [6]) [µg/mL] | MeCN percentage at peak elution [7] [%] | MIC (Escherichia coli [8]) [µg/mL] | MIC (Staphylococcus aureus) [µg/mL] | fold change (FC) (Escherichia coli [9]) | MIC (Escherichia coli [10]) [µg/mL] | MIC (Klebsiella pneumoniae [11]) [µg/mL]
CC[C@H](C)[C@@H](NC(=O)[C@@H](NC(=O)[C@H](CCC(=O)O)NC(=O)[C@H](Cc1ccccc1)NC(=O)[C@@H](CCN)NC(=O)[C@H](CCN)NC(=O)[C@H](CO)NC(=O)[C@@H](Cc1c[nH]c2ccccc12)NC(=O)[C@@H](CO)NC(=O)CNC(=O)[C@@H](CCN)NC(=O)[C@H](NC(=O)CCN)C(C)C)C(C)C)C(=O)N[C@@H](C)C(=O)O | 390 | 2 (≈ 1.36 µM) | > 170 | 0 | ≥ 2 | 8 (≈ 5.46 µM) | 32 (≈ 21.8 µM) | 0.5 (≈ 0.341 µM) | 39.8 | – | 64 (≈ 43.7 µM) | – | 0.5 (≈ 0.341 µM) | –
CC[C@H](C)[C@@H](NC(=O)[C@@H](NC(=O)[C@H](CCC(=O)O)NC(=O)[C@H](Cc1ccccc1)NC(=O)[C@@H](CCN)NC(=O)[C@H](C)NC(=O)[C@H](CO)NC(=O)[C@@H](Cc1c[nH]c2ccccc12)NC(=O)[C@@H](CO)NC(=O)CNC(=O)[C@@H](CCN)NC(=O)[C@H](NC(=O)[C@H](C)N)C(C)C)C(C)C)C(=O)N[C@@H](C)C(=O)O | 3700 | 4 (≈ 2.78 µM) | 121 (≈ 84.2 µM) | 7.9 | 8 (≈ 5.57 µM) | > 64 | 32 (≈ 22.3 µM) | 8 (≈ 5.57 µM) | 44.3 | 8 | > 64 | – | 4 (≈ 2.78 µM) | 16

Reference: ChEMBL document CHEMBL5518181, “Studies of antibacterial activity (in vitro and in vivo) and mode of action for des-acyl tridecaptins (DATs)” (Eur J Med Chem, 2024)
